Experimental data from the supplement of paper PMC10307832.

Key:
Assay in all cases: relative viability (nuclei count vs DMSO), 5 days (fraction); higher = more cells survive
BI-D1870 + Pictilisib = compound: CC(C)CCN1c2nc(Nc3cc(F)c(O)c(F)c3)ncc2N(C)C(=O)C1C [BI-D1870] + CS(=O)(=O)N1CCN(Cc2cc3nc(-c4cccc5[nH]ncc45)nc(N4CCOCC4)c3s2)CC1 [Pictilisib] (partner 1 µM)
Procedure, shortened: (§1)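 Cells from lung cancer lines were seeded into 1536-well plates and, one day later, dosed by pin tool. Treatments were either a single drug or a fixed dose of an anchor drug with five library-drug doses (not always all listed) in √10 steps. After 5 days, nuclei were stained in a one-step fixation (final 0.05% Triton X-100, 1% formaldehyde, 1 ug/ml Hoechst) and counted on 4× images, and relative viability is the treated-to-vehicle nuclei ratio, as the median of duplicate plates.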

Zebularine + Phenformin = compound: O=c1ncccn1[C@@H]1O[C@H](CO)[C@@H](O)[C@H]1O [Zebularine] + N=C(N)NC(=N)NCCc1ccccc1 [Phenformin] (partner 250 µM)
Procedure, shortened: as §1

BI-D1870 + AZD7762 = compound: CC(C)CCN1c2nc(Nc3cc(F)c(O)c(F)c3)ncc2N(C)C(=O)C1C [BI-D1870] + NC(=O)Nc1cc(-c2cccc(F)c2)sc1C(=O)N[C@H]1CCCNC1 [AZD7762] (partner 0.2 µM)
Procedure, shortened: as §1

BI-D1870 + Trametinib = compound: CC(C)CCN1c2nc(Nc3cc(F)c(O)c(F)c3)ncc2N(C)C(=O)C1C [BI-D1870] + CC(=O)Nc1cccc(-n2c(=O)n(C3CC3)c(=O)c3c(Nc4ccc(I)cc4F)n(C)c(=O)c(C)c32)c1 [Trametinib] (partner 0.02 µM)
Procedure, shortened: as §1

Row | Cell Line | relative viability (BI-D1870 + Pictilisib; first compound 0.04 µM) | relative viability (BI-D1870 + Pictilisib; first compound 0.1265 µM) | relative viability (BI-D1870 + Pictilisib; first compound 0.4 µM) | relative viability (BI-D1870 + Pictilisib; first compound 1.265 µM) | relative viability (BI-D1870 + Pictilisib; first compound 4 µM) | relative viability (Zebularine + Phenformin; first compound 1 µM) | relative viability (Zebularine + Phenformin; first compound 3.162 µM) | relative viability (Zebularine + Phenformin; first compound 10 µM) | relative viability (Zebularine + Phenformin; first compound 31.62 µM) | relative viability (Zebularine + Phenformin; first compound 100 µM) | relative viability (BI-D1870 + AZD7762; first compound 0.04 µM) | relative viability (BI-D1870 + AZD7762; first compound 0.1265 µM) | relative viability (BI-D1870 + AZD7762; first compound 0.4 µM) | relative viability (BI-D1870 + AZD7762; first compound 1.265 µM) | relative viability (BI-D1870 + AZD7762; first compound 4 µM) | relative viability (BI-D1870 + Trametinib; first compound 0.04 µM) | relative viability (BI-D1870 + Trametinib; first compound 0.1265 µM) | relative viability (BI-D1870 + Trametinib; first compound 0.4 µM) | relative viability (BI-D1870 + Trametinib; first compound 1.265 µM) | relative viability (BI-D1870 + Trametinib; first compound 4 µM)
1 | NCI-H3122 | 0.632 | 0.434 | 0.604 | 0.653 | 0.62 | 0.434 | 0.389 | 0.332 | 0.385 | 0.352 | 0.947 | 0.902 | 0.952 | 1.06 | 0.944 | 0.234 | 0.202 | 0.234 | 0.25 | 0.279
2 | NCI-H2087 | 0.963 | 0.867 | 0.86 | 1.03 | 0.665 | 0.524 | 0.448 | 0.272 | 0.385 | 0.352 | 1.41 | 1.4 | 1.37 | 1.45 | 1.41 | 0.2 | 0.158 | 0.189 | 0.246 | 0.199
3 | LC-2-ad | 0.536 | 0.456 | 0.498 | 0.0168 | 0.474 | 0.657 | 0.538 | 0.416 | 0.488 | 0.325 | 0.849 | 0.805 | 0.831 | 0.886 | 0.675 | 0.897 | 0.848 | 0.957 | 0.956 | 0.882
4 | NCI-H1915 | 1.08 | 0.914 | 0.907 | 0.897 | 0.671 | 0.373 | 0.381 |  | 0.379 | 0.349 | 0.706 | 0.636 | 0.665 | 0.7 | 0.616 | 0.332 | 0.27 | 0.27 | 0.254 | 0.249
5 | NCI-H1793 | 0.295 | 0.308 | 0.227 | 0.347 | 0.288 | 0.4 | 0.39 |  | 0.237 | 0.168 | 0.74 | 0.411 | 0.296 | 0.417 | 0.504 | 0.486 | 0.332 | 0.366 | 0.631 | 0.429
6 | RERF-LC-KJ | 0.546 | 0.501 | 0.451 | 0.597 | 0.459 | 0.403 | 0.431 | 0.35 | 0.41 | 0.406 | 0.944 | 0.896 | 0.946 | 1.08 | 0.914 | 0.901 | 0.752 | 0.863 | 0.837 | 0.693
7 | LXF-289 | 0.833 | 0.763 | 0.798 | 0.745 | 0.665 | 0.512 | 0.503 | 0.41 | 0.406 | 0.26 | 1.08 | 1.04 | 1.07 | 1.06 | 0.943 | 0.755 | 0.608 | 0.71 | 0.738 | 0.612
8 | PC-14 | 0.769 | 0.688 | 0.557 | 0.537 | 0.438 | 0.805 | 0.28 | 0.167 | 0.124 | 0.0723 | 0.449 | 0.301 | 0.361 | 0.344 | 0.316 | 0.864 | 0.534 | 0.788 | 0.498 | 0.243
